PMC6514812, “[^18F]Fluoroethyltriazolyl Monocyclam Derivatives as Imaging Probes for the Chemokine Receptor CXCR4” (Molecules, 2019)
Like-named read-outs stand apart in the source and are kept apart here.

Legend:
CXCR4 [1] = target: T1, CXCR4 (Homo sapiens, UniProt P61073); experiment: Competition binding assay vs [^68Ga]Pentixafor in PC3-CXCR4 cells
T1 construct: expressed in transfected cells; host or cells: PC3 (human prostate cancer) cells stably transduced with CXCR4
Summary of the method: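 PC3-CXCR4 cells were incubated 60 min at 37 °C with tracer ([^68Ga]Pentixafor at 100 nM or [^18F]RPS-544 at ~5 pM) plus unlabelled ligand at eight concentrations (0.001–10,000 nM). Cell-bound activity was gamma-counted after washing. Non-specific binding was subtracted and IC50 was fitted to a sigmoidal Hill model assuming simple competition.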

CXCR4 [2] = target: T1, CXCR4; experiment: Saturation binding assay in PC3-CXCR4 cells
Summary of the method: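 PC3 cells expressing CXCR4 incubated with ~5 nM radioligand plus matching unlabelled ligand at eight final concentrations, 0.001–10,000 nM, in triplicate, then washed and counted. Kd from a one-site nonlinear fit, y = (Bmax · x)/(Kd + x), after non-specific binding subtraction; reported ± SD.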

PC3-CXCR4 cells = experiment: Cell-associated activity in PC3-CXCR4 cells; format: cell-based, human; conditions: 1 h
Description: Maximum cell-associated activity was calculated by subtracting the cell uptake of the radioactive ligand at the highest non-radioactive ligand concentration of 10 µM (which we considered to be non-specific uptake/binding) from the cell uptake at the lowest non-radioactive ligand concentration of 10^−5 µM.

[3] = system: PC3-CXCR4 xenograft tumors; experiment: µPET/CT titration of tumor uptake by co-injection of AMD-3100 (block50); format: in vivo, BALB/c mice; conditions: co-injection of AMD-3100, µPET/CT 1 h p.i.; listed as [^18F]RPS-544
Description: All animal studies were approved by the Institutional Animal Care and Use Committee of Weill Cornell Medicine (Protocol Number: 2015-0066) and were undertaken in accordance with the guidelines set forth by the USPHS Policy on Humane Care and Use of Laboratory Animals. Animals were housed under standard conditions in approved facilities with 12 h light/dark cycles. Food and water was provided ad libitum throughout the course of the studies. Hairless 6-to-8-week old male BALB/c inbred athymic nude mice (Jackson Laboratory, Bar Harbor, ME, USA) were inoculated bilaterally with 0.2 mL of a 1:1 mixture of 10^7 PC3-CXCR4 cells in PBS and Matrigel (Corning, Tewksbury, MA, USA) subcutaneously in the left shoulder and 0.2 mL of a 1:1 mixture of 10^7 PC3-WT cells in PBS and Matrigel subcutaneously in the right shoulder. […]
For the imaging studies, the tumor-bearing mice (n = 2/compound) were injected intravenously with 100 μL of a 9% v/v EtOH/saline solution containing approximately 3.7 MBq of the radioligand. […] Tumor uptake was quantified by the following procedure: CT-aided regions of interest were drawn, and tissue concentration was determined by comparison with a 3 %ID/cm^3 standard included in the field of view. Uptake was expressed as percent injected dose per centimeter cubed (%ID/cm^3) ± standard deviation.

[4] = system: PC3-CXCR4 xenograft tumors; design: method as in PMID 29544122; conditions: cited from earlier work

T1 sequence (P61073 whole entry): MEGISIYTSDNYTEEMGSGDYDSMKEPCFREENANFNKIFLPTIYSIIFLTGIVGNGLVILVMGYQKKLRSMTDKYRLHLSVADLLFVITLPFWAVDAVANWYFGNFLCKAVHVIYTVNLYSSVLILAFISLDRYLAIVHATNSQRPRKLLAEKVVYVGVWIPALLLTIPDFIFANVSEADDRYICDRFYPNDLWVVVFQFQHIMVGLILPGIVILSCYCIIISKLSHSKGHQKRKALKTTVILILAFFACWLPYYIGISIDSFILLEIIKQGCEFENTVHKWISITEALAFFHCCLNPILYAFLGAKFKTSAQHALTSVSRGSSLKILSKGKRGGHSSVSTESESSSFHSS

SMILES: Fc1cccc(CNCc2ccc(CN3CCCNCCNCCCNCC3)cc2)n1 [RPS-544]
- IC50 (CXCR4 [1]; vs 100 nM [^68Ga]Pentixafor, PC3-CXCR4 cells, 60 min 37 °C): 6.3 ± 0.8 nM
- Hill Slope, Competitive Binding Experiment (CXCR4 [1]; vs [^68Ga]Pentixafor, value ± SD): 1.13 ± 0.47
- Kd (CXCR4 [2]; saturation binding, PC3-CXCR4 cells): 5.1 ± 1 nM
- Hill Slope, Saturation Binding Experiment (CXCR4 [2]; value ± SD): 1.06 ± 0.11
- Cell-Associated Activity (PC3-CXCR4 cells): 8.2 ± 0.3 %IA
- Block50: dose of AMD-3100 reducing uptake in PC3-CXCR4 tumors by 50% [3]: 0.17 ± 0.06 mg/kg
- PC3-CXCR4 Tumor-to-Tissue Ratio Blood ([4]; 1 h p.i.): 2.5 ± 0.4
- PC3-CXCR4 Tumor-to-Tissue Ratio Bone ([4]; 1 h p.i.): 4.2 ± 1.2
- PC3-CXCR4 Tumor-to-Tissue Ratio Kidneys ([4]; 1 h p.i.): 0.1 ± 0.1
- PC3-CXCR4 Tumor-to-Tissue Ratio Liver ([4]; 1 h p.i.): 0.1 ± 0.1
- PC3-CXCR4 Tumor-to-Tissue Ratio Lungs ([4]; 1 h p.i.): 2.0 ± 1.2
- PC3-CXCR4 Tumor-to-Tissue Ratio Muscle ([4]; 1 h p.i.): 11.1 ± 0.4
- PC3-CXCR4 Tumor-to-Tissue Ratio PC3-WT ([4]; 1 h p.i.): 3.3 ± 1.3
- PC3-CXCR4 Tumor Uptake ([4]; 1 h p.i., previously published data): 3.4 ± 1.2 %ID/g
- PC3-CXCR4 Tumor-to-Tissue Ratio Blood ([4]; 2 h p.i.): 4.8 ± 0.1
- PC3-CXCR4 Tumor-to-Tissue Ratio Bone ([4]; 2 h p.i.): 2.9 ± 0.3
- PC3-CXCR4 Tumor-to-Tissue Ratio Kidneys ([4]; 2 h p.i.): 0.1 ± 0.1
- PC3-CXCR4 Tumor-to-Tissue Ratio Liver ([4]; 2 h p.i.): 0.1 ± 0.1
- PC3-CXCR4 Tumor-to-Tissue Ratio Lungs ([4]; 2 h p.i.): 1.7 ± 0.3
- PC3-CXCR4 Tumor-to-Tissue Ratio Muscle ([4]; 2 h p.i.): 6.7 ± 0.2
- PC3-CXCR4 Tumor-to-Tissue Ratio PC3-WT ([4]; 2 h p.i.): 2.6 ± 0.3
